Here are results for 3 compounds from patent publication US5728726A, “Method and compositions for inhibiting protein kinases” (Cor Therapeutics, Inc., priority 1995, dated 1998).

One data set concerns the target recombinant c-src (Homo sapiens, UniProt P12931). Nature of the data set: recombinant c-src kinase microtiter plate assay.
The test system of another data set is HS68. Nature of the data set: cell proliferation under normal tissue culture conditions, HS68. To be noted: Homo sapiens, Hs68, 96 h, read-out: IC50 HS68.
A further data set relates to WS1. Nature of the data set: cell proliferation under normal tissue culture conditions, WS1. To be noted: Homo sapiens, read-out: IC50 WS1. Type of data set: cell-based.
Data set [1] deals with human cell lines (HS68, HS 27, CCD18, and WS1). Nature of the data set: cells.
Another data set deals with CCD18. Nature of the data set: cell proliferation under normal tissue culture conditions, CCD18. Particulars: Homo sapiens, read-out: IC50 CCD18. Type of data set: cell-based.
The test system of another data set is HS27. Nature of the data set: cell proliferation under normal tissue culture conditions, HS27. The class given is cell-based. Particulars: Homo sapiens, read-out: IC50 HS27.
The target in another data set is Protein Kinase A (PKA) (Homo sapiens, UniProt P17612). Nature of the data set: Protein Kinase A non-radioactive kinase assay (UBI).
The target of a further data set is human beta PDGFR (Homo sapiens, UniProt P09619). Nature of the data set: beta PDGF receptor autophosphorylation in HR5 cells.
human beta PDGFR, sequence (P09619 33-1106): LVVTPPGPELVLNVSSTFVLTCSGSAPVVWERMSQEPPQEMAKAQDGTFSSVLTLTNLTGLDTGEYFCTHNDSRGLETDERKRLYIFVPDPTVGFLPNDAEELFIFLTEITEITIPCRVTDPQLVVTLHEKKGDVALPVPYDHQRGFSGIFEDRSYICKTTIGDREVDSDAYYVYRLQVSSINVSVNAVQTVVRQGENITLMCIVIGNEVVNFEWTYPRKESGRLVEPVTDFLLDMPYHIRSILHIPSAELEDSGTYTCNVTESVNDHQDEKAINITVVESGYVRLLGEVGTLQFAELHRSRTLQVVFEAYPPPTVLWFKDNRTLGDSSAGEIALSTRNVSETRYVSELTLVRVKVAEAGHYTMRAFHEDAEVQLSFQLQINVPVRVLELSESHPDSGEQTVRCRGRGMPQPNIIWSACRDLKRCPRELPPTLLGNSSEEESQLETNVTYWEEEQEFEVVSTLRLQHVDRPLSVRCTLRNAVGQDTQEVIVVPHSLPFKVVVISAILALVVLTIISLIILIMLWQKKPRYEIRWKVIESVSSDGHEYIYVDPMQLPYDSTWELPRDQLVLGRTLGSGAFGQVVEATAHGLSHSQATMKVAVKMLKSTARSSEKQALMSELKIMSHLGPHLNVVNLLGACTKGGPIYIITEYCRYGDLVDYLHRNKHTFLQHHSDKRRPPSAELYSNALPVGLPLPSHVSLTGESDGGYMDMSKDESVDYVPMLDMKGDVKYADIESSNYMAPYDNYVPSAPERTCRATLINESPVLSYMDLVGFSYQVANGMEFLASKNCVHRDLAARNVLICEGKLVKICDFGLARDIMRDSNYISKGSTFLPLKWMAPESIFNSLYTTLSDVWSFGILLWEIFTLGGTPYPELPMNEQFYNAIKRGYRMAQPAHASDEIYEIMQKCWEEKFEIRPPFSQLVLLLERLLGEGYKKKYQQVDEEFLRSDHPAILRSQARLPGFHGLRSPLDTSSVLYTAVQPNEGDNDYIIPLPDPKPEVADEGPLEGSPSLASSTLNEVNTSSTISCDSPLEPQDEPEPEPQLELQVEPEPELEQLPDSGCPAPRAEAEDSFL
The test system of data set [2] is human cell lines (HS68, HS 27, CCD18, and WS1). To be noted: 96 hours.
The target in another data set is T1, human FGF receptor-1 (Homo sapiens, UniProt P11362).
T1 construct: expressed in transfected cells; host or cells: CHO cells
T1 sequence (P11362 22-822): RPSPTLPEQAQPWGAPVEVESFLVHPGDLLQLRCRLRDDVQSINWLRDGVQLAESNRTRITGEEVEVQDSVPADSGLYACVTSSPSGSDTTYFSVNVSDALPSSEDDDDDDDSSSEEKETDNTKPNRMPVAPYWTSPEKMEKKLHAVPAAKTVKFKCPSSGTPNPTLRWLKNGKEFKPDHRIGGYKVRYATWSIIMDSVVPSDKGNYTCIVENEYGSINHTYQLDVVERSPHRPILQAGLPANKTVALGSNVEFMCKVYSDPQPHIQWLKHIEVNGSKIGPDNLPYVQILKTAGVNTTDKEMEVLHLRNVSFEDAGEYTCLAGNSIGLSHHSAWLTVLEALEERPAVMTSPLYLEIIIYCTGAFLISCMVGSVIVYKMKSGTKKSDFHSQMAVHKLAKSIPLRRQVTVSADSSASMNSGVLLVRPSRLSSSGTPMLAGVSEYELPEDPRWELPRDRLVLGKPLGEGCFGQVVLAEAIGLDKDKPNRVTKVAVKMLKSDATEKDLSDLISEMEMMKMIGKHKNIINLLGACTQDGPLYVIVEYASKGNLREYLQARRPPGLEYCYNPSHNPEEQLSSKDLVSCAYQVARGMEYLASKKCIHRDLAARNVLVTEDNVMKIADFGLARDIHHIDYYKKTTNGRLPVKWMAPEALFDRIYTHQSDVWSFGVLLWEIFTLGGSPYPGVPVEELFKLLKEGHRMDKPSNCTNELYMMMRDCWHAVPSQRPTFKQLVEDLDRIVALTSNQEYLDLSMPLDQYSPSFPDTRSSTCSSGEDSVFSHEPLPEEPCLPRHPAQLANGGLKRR
Nature of the data set: FGF receptor-1 autophosphorylation in CHO cells. Type of data set: cell-based. On the procedure: In order to measure FGF receptor-1 autophosphorylation, the human FGF receptor-1 cDNA was stably over-expressed in CHO cells using standard techniques. These cells were grown to confluency in RPMI with 10% fetal bovine serum, the media was replaced with serum-free RPMI and incubation continued for 18 hours prior to stimulation with BFGF (75 ng/ml) for 10 min at 37° C. in the absence of presence or PTK inhibitors in a concentration range of 0.1-30 μM Cell lysates were prepared under the same conditions as described above for the EGF receptor assay. Lysates were incubated with a monoclonal antibody directed against the FGF receptor-1 extracellular domain (prepared at COR Therapeutics, South San Francisco, Calif.) and the immunoprecipitated receptor was subjected to SDS-PAGE and Western blot analysis with antiphosphotyrosine antibodies as described above for EGF receptor.

In another data set the test system is Protein Kinase C (PKC). Nature of the data set: Protein Kinase C non-radioactive kinase assay (UBI). Particulars: at a concentration of 40 μm.
The test system of the next data set is HS68 cells. Nature of the data set: PDGF BB-induced [3H]thymidine incorporation into HS68 cells. Type of data set: cell-based. Particulars: Homo sapiens, Hs68, read-out: concentration blocking PDGF BB induced thymidine incorporation by 50%. As to the method:
[…]. Since there are many reports in the literature implicating PDGF in diseases such as glomerulonephritis, cancer, atherosclerosis, and restenosis we tested 292 for its ability to block PDGF induced cell proliferation. A human primary fibroblast cell line, HS68 (ATCC), was plated into 96 well dishes at 150,000 cells/well in media containing 10% fetal bovine serum in DMEM. The cells were incubated at 37° C. for 7-10 days at which time they had become confluent and quiescent. […] To determine the level of cell proliferation, […] of [^3 H ]thymidine were added to each well and incubation was continued for an additional 5 hours. Cells were then washed with 5% cold trichloroacetic acid (TCA), solubilized in 0.2N NaOH, 0.1% SDS and the amount of [^3 H]thymidine incorporation was determined. […].
(In general: Uptake of a labelled nucleoside into DNA is a usual measure of proliferation.)

Like-named read-outs stand apart in the source and are kept apart here.

recombinant c-src, sequence (P12931 whole entry): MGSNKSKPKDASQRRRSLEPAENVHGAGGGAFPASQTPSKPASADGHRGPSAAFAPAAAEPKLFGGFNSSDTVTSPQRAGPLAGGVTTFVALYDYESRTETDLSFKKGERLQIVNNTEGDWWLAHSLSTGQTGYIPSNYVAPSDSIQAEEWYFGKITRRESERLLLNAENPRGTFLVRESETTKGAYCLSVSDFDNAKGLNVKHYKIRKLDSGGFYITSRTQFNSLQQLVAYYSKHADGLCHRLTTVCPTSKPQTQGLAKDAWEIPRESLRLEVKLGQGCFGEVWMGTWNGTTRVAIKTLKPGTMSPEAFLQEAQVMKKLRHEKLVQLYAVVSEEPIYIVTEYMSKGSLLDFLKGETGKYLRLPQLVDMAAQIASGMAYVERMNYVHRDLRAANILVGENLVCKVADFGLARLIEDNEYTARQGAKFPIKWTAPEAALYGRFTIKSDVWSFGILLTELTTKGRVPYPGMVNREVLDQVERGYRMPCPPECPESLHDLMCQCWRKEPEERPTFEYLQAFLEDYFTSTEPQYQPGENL
Procedure for recombinant c-src: After a 20 minute incubation at 37° C., the reactions were stopped by adding 10 ul of 50% acetic acid, the wells were washed and anti-phosphotyrosine antibody was used to detect the tyrosine phosphorylated substrate under the same conditions as described above for the detection of phosphorylated PDGF receptor.

As for `COC(=O)[C@@]1(O)C[C@H]2O[C@]1(C)n1c3ccccc3c3c4c(c5c6ccccc6n2c5c31)C(=O)NC4` [Compound K252a, K252a, reference compound], the IC50 at recombinant c-src was 0.02 µM; in the data set on HS68, 5 µM; in the data set on WS1 (WS1, 96 h), 5 µM; in data set [1] (read-out: concentration range inhibiting cell growth by 50%) it was 1 to 12 µM; with CCD18 (96 h), 1 µM; in the data set on HS27 (HS27, 96 h), 12 µM. Besides, the IC50 is 0.07 µM on Protein Kinase A (PKA); 0.07 µM at Protein Kinase A (PKA) (IC50 PKA, Table 2, inhibition of protein kinase activity); 0.27 µM on human beta PDGFR.

Regarding `COc1cc(O)c2c(c1)/C=C/C[C@H](O)[C@H](O)C(=O)/C=C\C[C@H](C)OC2=O` [Compound 292], the “decrease in cell growth of any of the cell lines tested” value in data set [2] (concentrations up to 10 μm) was “no decrease”. Besides, the IC50 is greater than 30 µM in the data set with HS68; greater than 30 µM in the data set on WS1 (WS1, Table 3, 96 hours, 10% fetal bovine serum); greater than 30 µM against human FGF receptor-1 (Table 2, inhibition of protein kinase activity); greater than 30 µM with CCD18 (Table 3, 96 hours, 10% fetal bovine serum); greater than 30 µM with HS27 (HS27, Table 3, 96 hours, 10% fetal bovine serum); greater than 40 µM at Protein Kinase A (PKA). The IC50 in the data set with HS68 cells is 0.016 µM. Also, the “inhibition of FGF receptor autophosphorylation” value against human FGF receptor-1 (concentrations as high as 30 μM) was “no detectable inhibition”. Also, the inhibition at 30 µM in [1] (96 h, read-out: decrease in cell growth) lay within 10 to 20%. In addition, at Protein Kinase A (PKA) (at a concentration of 40 μm), the “reduction in PKA activity” value is listed as “did not achieve a 50% reduction”. Moreover, the “reduction in PKC activity” value with Protein Kinase C (PKC) is recorded as “did not achieve a 50% reduction”. Moreover, the IC100 on human beta PDGFR (read-out: concentrations at which complete inhibition was observed) was greater than 0.2 µM.

Take `CN[C@@H]1C[C@H]2O[C@@](C)([C@@H]1OC)n1c3ccccc3c3c4c(c5c6ccccc6n2c5c31)C(=O)NC4` [Staurosporin, reference compound]: in [2], the “concentration completely blocking the growth of all of the cell lines” value came to 10 nM.
